Key:
NMDA NR1/NR2B receptor = NMDA NR1/NR2B receptor (Homo sapiens (Human), UniProt Q13224); test: In vitro NMDA NR1/NR2B cell assay (FLIPR, intracellular calcium induced by glycine/glutamate); assay type: cell-based; conditions: HEK293 NR1/NR2B, 20 μM glycine / 1 μM glutamate, read-out: In vitro NR2B affinity, IC50
Protocol: A human HEK293 cell line with tetracyclin-inducible expression of NMDA NR1/NR2B receptor was used as a test system for compound efficacy and potency. The cell line was purchased from ChanTest, Catalog #CT6121. Compound activity was determined by measuring the effect of compounds on intracellular calcium concentration induced by glycine/glutamate agonism in a FLIPRtetra system (Molecular Devices).
The cells were obtained as frozen cells in cryo-vials and stored until use at −150° C. Cells were grown in culture medium (DMEM/F12, 10% FBS, 5 μg/mL Blasticidin, 150 μg/mL Zeozin, 500 μg/mL Geneticin). […] For sub-culturing the cells were detached from flasks by Versene. For the assay, cells were detached, washed twice with induction medium (DMEM/F12 without glutamine, 10% FBS, 2 μg/mL Tetracycline, 2 mM Ketamine) and seeded to 384 well pure coat amine plates (Becton Dickinson, 50000 cells per well in 50 μl) 48 h prior to assay in induction medium.
The test compounds were dissolved in 100% DMSO at a concentration of 10 mM and in a first step diluted in DMSO to a concentration of 5 mM, followed by serial dilution steps in 100% DMSO. Dilution factor and number of dilution steps may vary according to needs. Typically 8 different concentrations by 1:5 dilutions were prepared in duplicate, further intermediate dilutions (1:37.5) of the substances were carried out with aqueous assay buffer (137 mM NaCl, 4 mM KCl, 1.8 mM CaCl2), 10 mM HEPES, 10 mM Glucose, pH 7.4) resulting in a compound concentration 3 times above the final test concentration and DMSO at 2.7% resulting in 0.9% final DMSO concentration in the assay.
At the assay day cells were washed 3× with assay buffer (as described above), 10 μL buffer remained in the wells after washing. 10 μL Ca kit loading buffer (AAT Bioquest; prepared from the kit containing the following components: Component A: Fluo-8 NW dissolved in 200 μL DMSO and 20 μl of this solution are mixed with 10 ml buffer prepared out of component B and C, Component B: 10× Pluronic® F127 Plus diluted 1:10 in component C, Component C: HHBS (Hanks with 20 mM Hepes) was added to the cells and the plates were incubated with lid for 60 minutes at room temperature. 20 μl assay buffer containing 60 μM glycine (20 μM final) and 3 μM glutamate (1 μM final) was added to column 1-23, column 24 got assay buffer without glycine/glutamate to serve as negative unstimulated control. Fluorescence (indicating the calcium influx as a result of the NR1/NR2B ion channel activation) was read on the FLIPRtetra device for 60 seconds to monitor the glutamate induced effects. After 2 minutes 20 μL of compound dilution prepared as described above or controls (row 1-22) in assay buffer were carefully added to the wells. […] The average of 2 measurements at 5 minutes and 5 min 10 seconds after compound addition is calculated and further used for IC50 calculations. Each assay microtiter compound dilution plate contained wells (in column 23 or 24) with DMSO controls instead of compound as controls for glycine/glutamate induced fluorescence (high controls) and wells with 1 μM of a reference NR2B NAM as low controls (Compound 22; reference: Layton, Mark E et al, ACS Chemical Neuroscience 2011, 2(7), 352-362).
The output file of the reader contains the well number and measured average fluorescence units. For data evaluation and calculation, the measurement of the low control was set as 0% control and the measurement of the high control was set as 100% control. The IC50 values were calculated using the standard 4 parameter logistic regression formula. Calculation: [y=(a−d)/(1+(x/c)^b)+d], a=low value, d=high value; x=conc M; c=IC50 M; b=slope.

human MDR1 (P-gp) = human MDR1 (P-gp) (Homo sapiens (Human), UniProt P08183); test: MDCK assay P-gp: permeability across MDCK-MDR1 monolayers; assay type: in vitro ADME; conditions: for Papp A→B at 2 h: MDCK-MDR1, apical-to-basal, pH 7.4; for efflux ratio at 2 h: pH 7.4, MDCK-MDR1, Papp (b-a) / Papp (a-b), read-out: efflux ratio PEBA/PEAB
Chain of human MDR1 (P-gp) (P08183 whole entry): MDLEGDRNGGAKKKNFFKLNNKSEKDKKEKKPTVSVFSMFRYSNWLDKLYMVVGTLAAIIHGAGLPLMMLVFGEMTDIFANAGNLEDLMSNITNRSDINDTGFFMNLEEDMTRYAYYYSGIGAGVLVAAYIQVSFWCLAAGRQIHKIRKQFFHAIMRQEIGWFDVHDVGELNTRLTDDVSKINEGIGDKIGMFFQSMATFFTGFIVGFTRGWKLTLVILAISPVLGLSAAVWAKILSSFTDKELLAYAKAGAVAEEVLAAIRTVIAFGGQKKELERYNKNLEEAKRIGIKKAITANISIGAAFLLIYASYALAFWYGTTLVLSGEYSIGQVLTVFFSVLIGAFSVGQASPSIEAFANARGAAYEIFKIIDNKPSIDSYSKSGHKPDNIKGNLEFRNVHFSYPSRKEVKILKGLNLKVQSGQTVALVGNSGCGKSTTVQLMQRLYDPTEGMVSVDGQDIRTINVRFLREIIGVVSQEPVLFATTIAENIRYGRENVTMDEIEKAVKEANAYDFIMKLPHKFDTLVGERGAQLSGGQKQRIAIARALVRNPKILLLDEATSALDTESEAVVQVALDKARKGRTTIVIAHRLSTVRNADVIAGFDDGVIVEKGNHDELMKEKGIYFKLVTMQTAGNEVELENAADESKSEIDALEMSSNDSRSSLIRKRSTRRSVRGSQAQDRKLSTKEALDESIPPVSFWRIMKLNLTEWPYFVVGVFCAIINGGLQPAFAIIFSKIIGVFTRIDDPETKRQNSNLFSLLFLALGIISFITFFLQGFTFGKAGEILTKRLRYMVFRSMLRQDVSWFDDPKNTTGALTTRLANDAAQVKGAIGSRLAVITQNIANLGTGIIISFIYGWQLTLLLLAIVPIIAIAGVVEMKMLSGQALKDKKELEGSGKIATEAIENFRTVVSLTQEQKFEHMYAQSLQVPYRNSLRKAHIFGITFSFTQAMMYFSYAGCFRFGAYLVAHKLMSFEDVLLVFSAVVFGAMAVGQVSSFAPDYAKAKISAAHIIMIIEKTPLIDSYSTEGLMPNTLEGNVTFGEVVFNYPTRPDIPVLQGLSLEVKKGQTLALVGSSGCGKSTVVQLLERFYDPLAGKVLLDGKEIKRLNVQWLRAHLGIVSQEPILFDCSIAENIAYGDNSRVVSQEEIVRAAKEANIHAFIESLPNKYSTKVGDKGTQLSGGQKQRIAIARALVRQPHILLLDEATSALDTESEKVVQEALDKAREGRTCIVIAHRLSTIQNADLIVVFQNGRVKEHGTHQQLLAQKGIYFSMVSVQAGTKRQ
Protocol: The MDCK assays provide information on the potential of a compound to pass the blood brain barrier. Permeability measurements across polarized, confluent MDCK-MDR1 cell monolayers grown on permeable filter supports are used as an in vitro absorption model: apparent permeability coefficients (PE) of the compounds across the MDCK-MDR1 cell monolayers are measured (pH 7.4, 37° C.) in apical-to-basal (AB) and basal-to-apical (BA) transport direction. The AB permeability (PEAB) represents drug absorption from the blood into the brain and the BA permeability (PEBA) drug efflux from the brain back into the blood via both, passive permeability as well as active transport mechanisms mediated by efflux and uptake transporters that are expressed on the MDCK-MDR1 cells, predominantly by the overexpressed human MDR1. Identical or similar permeabilities in both transport directions indicate passive permeation (PEBA/PEAB≤1), vectorial permeability points to additional active transport mechanisms. Higher PEBA than PEAB (PEBA/PEAB>5) indicates the involvement of active efflux mediated by MDR1, which might compromise the goal to achieve sufficient brain exposure. Therefore, this assay provides valuable support for selection of compounds applicable for further in vivo testing. High permeability not limited by efflux at the blood brain barrier is a favourable characteristic for compounds that are to be used for drugs acting primarily in the CNS.
Apparent permeability coefficients (Papp) of the compounds across the MDCK-MDR1 monolayers (MDCKII cells transfected with human MDR1 cDNA expression plasmid) are measured in apical-to-basal (AB) and basal-to-apical (BA) direction.
MDCK-MDR1 cells (6×10^5 cells/cm^2) are seeded on filter inserts (Corning, Transwell, polycarbonate, 0.4 μm pore size) and cultured for 9 to 10 days. Compounds dissolved in DMSO stock solution (1-20 mM) are diluted with HTP-4 aqueous buffer (128.13 mM NaCl, 5.36 mM KCl, 1 mM MgSO4, 1.8 mM CaCl2, 4.17 mM NaHCO3, 1.19 mM Na2HPO4, 0.41 mM NaH2PO4, 15 mM HEPES, 20 mM glucose, pH 7.4) supplemented with 0.25% BSA to prepare the transport solutions (final concentration: 1 or 10 μM, final DMSO<=0.5%). The transport solution is applied to the apical or basolateral donor side for measuring A-B or B-A permeability, respectively. The receiver side contains HTP-4 buffer supplemented with 0.25% BSA. Samples are collected at the start and end of experiment from the donor and at various time intervals for up to 2 hours also from the receiver side for concentration measurement by HPLC-MS/MS (RapidFire High-throughput MS System (Agilent) coupled to QTrap 6500 (AB Sciex) or TSQ Vantage (Thermo Scientific)). Sampled receiver volumes are replaced with fresh receiver solution. Efflux ratio is calculated dividing the Papp (b-a) values by the Papp (a-b) values.

Chain of NMDA NR1/NR2B receptor (Q13224 27-1484, other chains not shown): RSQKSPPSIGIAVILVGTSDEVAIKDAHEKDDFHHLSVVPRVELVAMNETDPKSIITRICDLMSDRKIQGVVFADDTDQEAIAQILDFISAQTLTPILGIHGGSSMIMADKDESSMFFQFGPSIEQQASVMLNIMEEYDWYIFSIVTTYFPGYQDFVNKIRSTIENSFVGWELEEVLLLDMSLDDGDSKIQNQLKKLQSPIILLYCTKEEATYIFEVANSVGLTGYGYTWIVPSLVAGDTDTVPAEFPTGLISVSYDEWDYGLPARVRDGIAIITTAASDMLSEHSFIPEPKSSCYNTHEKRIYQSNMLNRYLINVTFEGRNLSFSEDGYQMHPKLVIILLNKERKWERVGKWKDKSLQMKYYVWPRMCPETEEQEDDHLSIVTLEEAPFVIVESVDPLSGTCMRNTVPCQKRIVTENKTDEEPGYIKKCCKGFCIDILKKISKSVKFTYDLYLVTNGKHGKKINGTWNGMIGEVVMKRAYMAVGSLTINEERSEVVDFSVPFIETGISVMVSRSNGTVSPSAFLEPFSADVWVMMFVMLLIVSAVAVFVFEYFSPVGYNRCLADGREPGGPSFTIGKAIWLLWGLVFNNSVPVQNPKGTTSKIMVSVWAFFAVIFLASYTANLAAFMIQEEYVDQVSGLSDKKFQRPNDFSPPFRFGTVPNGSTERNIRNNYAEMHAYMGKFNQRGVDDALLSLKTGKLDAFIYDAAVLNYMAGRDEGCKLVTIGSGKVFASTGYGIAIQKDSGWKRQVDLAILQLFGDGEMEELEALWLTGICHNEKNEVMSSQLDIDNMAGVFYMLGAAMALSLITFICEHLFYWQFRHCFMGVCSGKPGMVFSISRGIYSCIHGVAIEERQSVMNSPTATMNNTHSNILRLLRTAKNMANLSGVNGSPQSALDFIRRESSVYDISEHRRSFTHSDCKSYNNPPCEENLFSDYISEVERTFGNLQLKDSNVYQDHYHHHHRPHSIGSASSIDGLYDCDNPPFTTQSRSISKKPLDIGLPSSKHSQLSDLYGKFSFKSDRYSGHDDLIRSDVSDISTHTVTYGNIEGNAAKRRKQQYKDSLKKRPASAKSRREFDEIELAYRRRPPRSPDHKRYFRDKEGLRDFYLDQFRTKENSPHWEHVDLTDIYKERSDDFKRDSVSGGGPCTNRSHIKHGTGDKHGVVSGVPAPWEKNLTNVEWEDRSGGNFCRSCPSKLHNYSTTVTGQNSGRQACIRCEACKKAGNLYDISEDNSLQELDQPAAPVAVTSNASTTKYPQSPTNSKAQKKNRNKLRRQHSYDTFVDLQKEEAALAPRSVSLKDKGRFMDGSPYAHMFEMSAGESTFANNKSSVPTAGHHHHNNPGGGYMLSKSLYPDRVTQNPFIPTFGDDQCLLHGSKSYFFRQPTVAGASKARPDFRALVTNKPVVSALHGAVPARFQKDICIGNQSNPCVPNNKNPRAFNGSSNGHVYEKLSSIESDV

SMILES | IC50 (NMDA NR1/NR2B receptor) [nM] | Papp A→B at 2 h (human MDR1 (P-gp)) [×10⁻⁶ cm/s] | efflux ratio at 2 h (human MDR1 (P-gp))
CCNC(=O)[C@@H]1CN(Cc2cnc(Oc3ccc(C)cc3F)cn2)CCO1 [Example 31] | 524 | 66 | 0.6
CNC(=O)[C@@H]1CN(Cc2cnc(Oc3ccc(F)cc3)cn2)CCO1 [Example 1] | 968 | 59 | 0.7
CNC(=O)[C@@H]1CN(Cc2cnc(Oc3ccc(Cl)cc3)cn2)CCO1 [Example 7] | 1000 | 66 | 0.7
CCNC(=O)[C@@H]1CN(Cc2cnc(Oc3ccccc3Cl)cn2)CCO1 [Example 33] | 807 | 59 | 0.7
CNC(=O)[C@@H]1CN(Cc2cnc(Oc3ccc(C)cc3)cn2)CCO1 [Example 3] | 690 | 75 | 0.7
CNC(=O)[C@@H]1CN(Cc2cnc(Oc3ccccc3Cl)cn2)CCO1 [Example 18] | 222 | 61 | 0.8

The next lines start with the values.

IC50 (NMDA NR1/NR2B receptor) [nM] | Papp A→B at 2 h (human MDR1 (P-gp)) [×10⁻⁶ cm/s] | efflux ratio at 2 h (human MDR1 (P-gp)) | SMILES
210 | 62 | 0.9 | CNC(=O)[C@@H]1CN(Cc2cnc(Oc3ccccc3F)cn2)CCO1 [Example 9]
110 | 59 | 0.8 | CNC(=O)[C@@H]1CN(Cc2cnc(Oc3ccc(Cl)cc3F)cn2)CCO1 [Example 5]
123 | 76 | 0.6 | CNC(=O)[C@@H]1CN(Cc2cnc(Oc3ccc(C)cc3F)cn2)CCO1 [Example 2]
595 | 81 | 0.4 | CCNC(=O)[C@@H]1CN(Cc2cnc(Oc3ccc(F)cc3F)cn2)CCO1 [Example 30]
1200 | 61 | 0.7 | CNC(=O)[C@@H]1CN(Cc2cnc(Oc3ccc(C)cc3C)cn2)CCO1 [Example 4]
856 | 70 | 0.6 | CNC(=O)[C@@H]1CN(Cc2cnc(Oc3ccc(F)cc3C)cn2)CCO1 [Example 8]
87 | 71 | 0.8 | CNC(=O)[C@@H]1CN(Cc2cnc(Oc3ccc(F)cc3F)cn2)CCO1 [Example 6]

From US11166958B2, “4-pyrazin-2-ylmethyl-morpholine derivatives and the use thereof as medicament” (Boehringer Ingelheim International GmbH, priority 2018, dated 2021)
